{"source": "patent US11203565B2", "about": "“Ester compound and PIN1 inhibitor, inflammatory disease therapeutic, and colon cancer therapeutic in which said ester compound is used” (Hiroshima University, priority 2016, dated 2021)", "key": {"[1]": {"test_system": "model animals of ulcerative colitis (DSS)", "experiment": "Comparison between oral and intraperitoneal administration in DSS mice (Example 5)", "assay_type": "in vivo", "details": "1 mg/kg/day", "method": "A compound whose therapeutic effect on ulcerative colitis could be confirmed in Example 4 (H-31) was studied on the difference in its effect depending on the administration method. […] In FIGS. 5(A) and (B), “normal” indicates a case where water was administered, and “DSS” indicates cases where DSS-containing water was administered. “non” indicates a case where no compound was administered, and “H-31” indicates a case where the compound synthesized in Example 2-7 was administered."}, "NASH model mice": {"test_system": "NASH model mice", "experiment": "Therapeutic experiment for NASH in MCDD-fed NASH model mice (Example 8)", "assay_type": "in vivo, mice (C57BL/6J)", "details": "NASH mice fed MCDD 8 weeks, intraperitoneal 2.5 mg/kg/day 3 times a week", "method": "In order to test the therapeutic effect of a compound of the present invention on non-alcoholic steatohepatitis (NASH), an animal experiment using NASH model mice was carried out.\nThe NASH model mice (hereinafter referred to as “NASH mice”) were prepared by feeding male individuals of laboratory mice (C57BL/6J) with methionine-choline-deficient diet (MCDD) for 8 weeks to allow accumulation of fat in the liver. The animal experiment was carried out for a group in which a compound of the present invention (H-31) was intraperitoneally administered 3 times a week at 2.5 mg/kg/day during the 8 weeks of the MCDD feeding period, and a group in which no administration was carried out. In addition, in order to provide control mice, male individuals of laboratory mice (C57BL/6J) were fed with normal diet for 8 weeks.\nThe results of measurement of the blood AST (GOT) level and the blood ALT (GPT) level in these mice are shown in FIGS. 8(A) and (B), respectively."}, "Pin1": {"molecular_target": "T1, Pin1 (Homo sapiens, UniProt Q13526)", "T1 construct": "endogenous in cells; host or cells: 293T cells", "T1 sequence (Q13526 whole entry)": "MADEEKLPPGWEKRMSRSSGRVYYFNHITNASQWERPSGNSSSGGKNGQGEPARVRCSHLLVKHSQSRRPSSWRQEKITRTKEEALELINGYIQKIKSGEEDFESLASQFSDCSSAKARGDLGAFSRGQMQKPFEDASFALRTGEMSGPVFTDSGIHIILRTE", "experiment": "Evaluation of inhibitory activity on function of Pin1: cell assay using degree of AMPK phosphorylation as index", "assay_type": "cell-based", "design": "key to Pin1 inhibitory activity: −: Promotion of AMPK phosphorylation was not (or hardly) found.; +: Phosphorylation of AMPK was promoted, but the promotion was weaker than that by C1.; ++: Phosphorylation of AMPK was promoted to the same degree as in the case of C1.; +++: Phosphorylation of AMPK was promoted more strongly than in the case of C1", "details": "293T cells", "method": "In order to evaluate the inhibitory activities of the compounds of the present invention synthesized in Example 2 on the function of Pin1, an assay using cells was carried out according to a method previously developed by the present inventors (Yusuke Nakatsu et al., Journal of Biological Chemistry, 2015, Vol. 290, No. 40, pp. 24255-24266), using as an index the degree of phosphorylation of AMPK (AMP-activated protein kinase), whose phosphorylation is known to be suppressed by Pin1.\nBriefly, 293T cells were plated on a 24-well plate coated with collagen. Forty-eight hours later, each compound (100 μM) synthesized in the Example was added to the plate, and the plate was left to stand in an incubator for 30 minutes. Thereafter, 10 mM 2-DG was added to the plate, and, 1 hour later, each sample was collected using a buffer containing mercaptoethanol and SDS.\nAccording to conventional methods, SDS-PAGE and blotting were carried out, and then blocking was carried out with 3% BSA for 1 hour. Thereafter, reaction was carried out at normal temperature for 1 hour with each of a pAMPK antibody (Cell signaling 1:2000, Can get signal solution 1: diluted by Toyobo) as a primary antibody, and an HRP-linked anti rabbit IgG (GE healthcare 1:4000, Can get signal solution 2: diluted by Toyobo) as a secondary antibody, to perform detection.\nAs a compound to be compared, C1: (R)-2-(5-(4-methoxyphenyl)-2-methylfuran-3-carboxamido)-3-(naphthalene-6-yl)propanoic acid, which is an already reported Pin1 inhibitor, was used.\nIn FIG. 3, “-” indicates the degree of phosphorylation of AMPK in a case where no Pin1 inhibitor was added, and “C1”, “H-30”, “H-31”, “H-32”, and “H-33” indicate the degrees of phosphorylation of AMPK in cases where the respective Pin1 inhibitors were added. […] The inhibitory activity on the function of Pin1 was rated as follows based on comparison with the degree of inhibition by C1."}, "Pin1 protein": {"test_system": "Pin1 protein", "experiment": "Confirmation of Pin1 expression level in the intestinal tract of DSS mice (Example 7)", "assay_type": "in vivo", "details": "after 7 days of administration", "method": "The expression level of Pin1 in the intestinal tract was measured for each mouse subjected to the therapeutic experiment in Example 5.\nThe present results also support that the compound synthesized in Example 2-7 (H-31) prevents development of ulcerative colitis."}, "colon cancer model mice": {"test_system": "colon cancer model mice", "experiment": "Therapeutic experiment for colon cancer in AOM/DSS colon cancer model mice (Example 9)", "assay_type": "in vivo", "details": "oral 1.25 mg/kg/day 3 times a week from Day 6, Day 89, vs control", "method": "On Day 1, azoxymethane (AOM) was intraperitoneally administered at 12 mg/kg to laboratory mice. Thereafter, from Day 6, a course of 5 days of oral administration of 3% dextran sulfate sodium (DSS) and a period of 16 days without administration of DSS was repeated 4 times to prepare colon cancer model mice having cancer caused by inflammation of the large intestine. A group in which a compound of the present invention (H-31) was administered and a group without administration of the compound of the present invention (control) were provided. In the group in which the compound of the present invention (H-31) was administered, oral administration was carried out 3 times a week at 1.25 mg/kg/day from Day 6.\nOn Day 89, the colon cancer model mice were dissected, and the number of colon cancer developed and the tumor area per colon cancer (total tumor area/number of tumors) were measured."}, "[2]": {"test_system": "model animals of ulcerative colitis (3% DSS)", "experiment": "Therapeutic experiment using model animals of ulcerative colitis (Example 4)", "assay_type": "in vivo, C57BL6 mice", "details": "DSS mice, compound 1 mg/kg/day", "method": "To C57BL6 mice of 8 weeks old, 3% DSS (dextran sulfate sodium)-containing water or water (control) was administered by allowing the mice to drink it for 7 days. For the mice to which DSS was administered, groups in which 5-ASA (compound name: 5-aminosalicylic acid; generic name: Mesalazine), which is a therapeutic agent for inflammatory bowel diseases, the compound synthesized in Example 2-7 (H-31), or the compound synthesized in Example 2-36 (H-179) was administered, and a group in which no compound was administered were provided. On Day 7 after the beginning of the administration, the body weight of each mouse was measured, and the large intestine was removed from the mouse, followed by carrying out histological study. […] In FIGS. 4(A) and (B), “normal” indicates a case where water was administered, and “DSS” indicates cases where DSS-containing water was administered. “non” indicates a case where no compound was administered, and “5-ASA”, “H-31”, and “H-179” indicate cases where the respective compounds were administered. The dose was as follows: 5-ASA, 300 mg/kg/day; H-31, 1 mg/kg/day; H-179, 1 mg/kg/day. As shown in FIG. 4(A), weight loss due to inflammation of the intestine was found in the cases where DSS was administered."}, "[3]": {"test_system": "model animals of ulcerative colitis (3% DSS)", "experiment": "Therapeutic experiment using model animals of ulcerative colitis 2 (Example 6)", "assay_type": "in vivo, C57BL6 mice", "details": "DSS mice, 1 mg/kg/day", "experimental": "To C57BL6 mice of 8 weeks old, 3% DSS (dextran sulfate sodium)-containing water or water (control) was administered by allowing the mice to drink it for 7 days. […] On Day 7 after the beginning of the administration, the body weight of each mouse was measured, and the large intestine was removed from the mouse, followed by carrying out histological study. […] In addition, an experiment for measuring the colon length was carried out."}}, "data": [{"molecule": "O=C(O[C@H](Cc1ccc2ccccc2c1)C(=O)O)C1c2ccccc2-c2ccccc21", "note": "[Compound H-31]", "values": [{"measurement": "body weight change", "setting": "[1]; intraperitoneal administration", "value": "no significant difference was found"}, {"measurement": "body weight change", "setting": "[1]; oral administration", "value": "a significant decrease in the body weight change"}, {"measurement": "blood ALT (GPT) level", "setting": "NASH model mice", "value": "the ALT value decreased"}, {"measurement": "blood AST (GOT) level", "setting": "NASH model mice", "value": "the AST value decreased"}, {"measurement": "fibrosis of liver tissue (Azan staining)", "setting": "NASH model mice", "value": "fibrosis of liver tissue was remarkably suppressed"}, {"measurement": "Pin1 inhibitory activity", "setting": "Pin1; compound 100 μM, 10 mM 2-DG, pAMPK immunoblot rated by comparison with C1", "value": "+++"}, {"measurement": "inhibitory activity on Pin1 (stated in words)", "setting": "Pin1; cell-based experiment, 100 μM", "value": "both have inhibitory activities on Pin1"}, {"measurement": "increase in the Pin1 protein level in the intestinal tract", "setting": "Pin1 protein", "value": "could be significantly ameliorated"}, {"measurement": "number of colon cancer developed", "setting": "colon cancer model mice", "value": "no significant difference in the number of colon cancer"}, {"measurement": "tumor area per colon cancer (total tumor area/number of tumors)", "setting": "colon cancer model mice", "value": "reduction of the tumor area could be found"}, {"measurement": "tissue damage in the large intestine (stained section)", "setting": "[2]; Day 7", "value": "tissue damage in the large intestine was hardly found"}, {"measurement": "weight loss (body weight as ratio to body weight before administration)", "setting": "[2]; Day 7, vs no compound", "value": "the weight loss was significantly smaller"}, {"measurement": "tissue damage in the large intestine (stained section)", "setting": "[3]", "value": "tissue damage in the large intestine was hardly found"}, {"measurement": "change in the colon length", "setting": "[3]; vs no compound", "value": "the change in the colon length was significantly smaller"}, {"measurement": "weight loss", "setting": "[3]; vs no compound", "value": "the weight loss was significantly smaller"}]}]}
